The test system of assay [1] is vector-only (V/O) CHO-K1 cells. Kind of assay: Fluorescence microscopy validation of labeled peptide specificity on live vector-only cells. The assay is classed as binding. The settings on record: 1 µM TMR-RK8, 5 min at room temperature, HBSS; Zeiss Axio Observer, BPTmX channel. How it is done: (§1) BMLK3 and vector-only cells were cultured in selective media (F-12K medium containing 10% fetal bovine serum and 800 µg/mL-1 of G418 sulfate), cells were seeded in […] (CELLSTAR®, Greiner Bio-One®, Monroe, NC USA) at 20,000 cells per well and were incubated overnight. The next assay, the cell culture medium was removed, and cells were rinsed twice with 200 µl DPBS, and 180 µl of HBSS buffer was added into each well. The peptide stock solutions were prepared in 1% DMSO in HBSS at 100 µM. TMR-RK8 (20 µl) was added into each well and incubated with the cells for 5 min at room temperature. The medium was then removed with a pipette and the cells were rinsed twice with 200 µl HBSS, and DAPI (VECTASHIELD® H-1200, Vector Laboratories) was added (20 µl of 0.15 µg/ml) for visualizing the cell nuclei. Cells were rinsed twice with 200 µl of HBSS, and finally 180 µl HBSS per well was added.
(§2) The cells were immediately imaged under a Zeiss Axio Observer® inverted fluorescence microscope. The exposure time for the Bodipy-Tetramethylrhodamine-X (BPTmX) fluorescence channel was the same for BMLK3 cells and V/O cells. DAPI imaging was done subsequently using the same focal height as the BPTmx channel.

Assay [2] relates to vector-only (V/O) CHO-K1 cells. Kind of assay: Confocal visualization on live vector-only cells with fluorescently labeled kinin peptide. The assay is classed as binding. The settings on record: 10 µM labeled peptide, 1 min, HBSS, confocal Leica SP8. The source says:
(§3) Three peptides were used in this study. These included: 1) the ligand for the endogenous tick kinin receptor from Rhipicephalus sanguineus, Rhisa-kinin 8 peptide of sequence GTGEDQAFSPWGamide (Rhisa-K-8; RK8; of identical sequence to Rhimi-K-8 in Rhipicephalus microplus)[48], 2) the same peptide but fluorescently labeled at the N-terminus with tetramethylrhodamine (TMR) a red fluorescent dye, designated TMR-Rhisa-K-8 (TMR-RK8), and 3) a labeled peptide synthesized with the scrambled sequence of the kinin ligand, designated TMR-Scrambled. The sequence of TMR-RK8 was TMR-C-GTGEDQAFSPWGamide). The TMR-Scrambled kinin (TMR-C-GTQWGPGFEADSamide) served as a negative control for tissue labeling. […]
(§4) The BMLK3 and V/O cells (5000–10,000 cells) were seeded separately in 200 µL selective media onto the two chambers of the cover glass (Lab-Tek Chambered Coverglass, 4.2 cm^2 area, #1.0 German borosilicate glass, sterile, Cat # 155,380, Thermo Fisher Scientific Inc., Walthams, MA) and grown in the incubator overnight at 37 °C and 5% CO2. The next day, cells would be ready for fluorescent labeling: the selective media was replaced with 200 µL HBSS to rinse the cells. […] Images were analyzed and computer-colored using Fiji/ImageJ (National Institutes of Health, Bethesda, MD). […]

Assay [3] relates to tick kinin receptor (CHO-K1 BMLK3 cells). Kind of assay: Fluorescence microscopy validation of labeled peptide specificity on live BMLK3 cells. The assay is classed as binding, Rhipicephalus microplus. As to the method: as §1, §2
Assay [4] deals with tick kinin receptor (recombinant R. microplus receptor, CHO-K1 BMLK3 cells). Kind of assay: Confocal visualization of recombinant kinin receptor on live BMLK3 cells with fluorescently labeled kinin peptide. The assay is classed as binding, Rhipicephalus microplus.
Excerpt: as §3, §4

“Also recorded” adds a separate entry of the source.

The values below come from PMC11091117, “A fluorescently-tagged tick kinin neuropeptide triggers peristalsis and labels tick midgut muscles” (Scientific Reports, 2024).

For the substance TMR-C-GTGEDQAFSPWGamide [TMR-RK8], in assay [1], the “labeling of vector-only cells, Fig. S1 (in words)” value is recorded as “only observed in the BLMK3 cells”. In addition, in assay [2], the “labeling of vector-only cells (in words)” value is given as “not labeled by either peptide”. Further, the “labeling of BMLK3 cells, Fig. S1 (in words)” value in assay [3] (1 µM TMR-RK8, 5 min at room temperature, HBSS, Zeiss Axio Observer, BPTmX channel) is “only observed in the BLMK3 cells”. Besides, in assay [3] (Figs. S1 and S2, BMLK3 cells), the “receptor visualization across multiple BMLK3 cells (in words)” value is listed as “consistently visualized with TMR-RK8 across multiple BMLK3 cells”. Besides, the “labeling of BMLK3 cells, Fig. S2 (in words)” value in assay [4] (1 µM TMR-RK8, confocal Leica SP8 with DIC, 1.1 µm Z-step, 13 slices) is given as “observed in most cells”. The “labeling of BMLK3 cells (in words)” value in assay [4] (live BMLK3 cells, 10 µM labeled peptide, 1 min, HBSS, confocal Leica SP8, Ex 542 nm, Em 572–759 nm) is “showed specific labeling; also recorded: observed only in BMLK3 cells”.
